Measured values from patent US20230145835A1, “Modulators of Alpha-4-beta-7 Integrin and MAdCAM” (48HD Biopharma Inc., priority 2021, published 2023).
Numbered stars: 1 amine (or outer) side, 2 acyl side, 3 side chain; on linkers, the order of the positions; unused ones are H or OH. Bridge positions count the residues as written; N and C are the ends. Square brackets hold non-standard residues; d marks the D form. Peptide text beside a SMILES is read from it. ξ: configuration not given here. X3 = O=C(/C=N/OCCCCCCOc1cc(C[*:2])cc(C[*:3])c1)[*:1]; X9 = NC(=O)[C@H](CS[*:1])CC(=O)[C@H](CCC(=O)O)N[*:2]; X1 = O=C(C=NOCCCCCCOc1cc(C[*:2])cc(C[*:3])c1)[*:1]; aThr = C[C@H](O)[C@H](N)C(=O)O; Thr(3ξ) = CC(O)[C@H](N)C(=O)O; Nle = CCCC[C@H](N)C(=O)O

The compounds below were run against T1, rh-integrin α4β7/LPAM-1 (Homo sapiens, UniProt P13612+P26010) (assay: α4β7-MadCAM Competition ELISA (Example 4)). Details: IC50, competition ELISA, 4 μg/mL α4β7 coated, MAdCAM and peptide mixture, 28° C.
T1 sequence (P13612 34-977 limits assumed): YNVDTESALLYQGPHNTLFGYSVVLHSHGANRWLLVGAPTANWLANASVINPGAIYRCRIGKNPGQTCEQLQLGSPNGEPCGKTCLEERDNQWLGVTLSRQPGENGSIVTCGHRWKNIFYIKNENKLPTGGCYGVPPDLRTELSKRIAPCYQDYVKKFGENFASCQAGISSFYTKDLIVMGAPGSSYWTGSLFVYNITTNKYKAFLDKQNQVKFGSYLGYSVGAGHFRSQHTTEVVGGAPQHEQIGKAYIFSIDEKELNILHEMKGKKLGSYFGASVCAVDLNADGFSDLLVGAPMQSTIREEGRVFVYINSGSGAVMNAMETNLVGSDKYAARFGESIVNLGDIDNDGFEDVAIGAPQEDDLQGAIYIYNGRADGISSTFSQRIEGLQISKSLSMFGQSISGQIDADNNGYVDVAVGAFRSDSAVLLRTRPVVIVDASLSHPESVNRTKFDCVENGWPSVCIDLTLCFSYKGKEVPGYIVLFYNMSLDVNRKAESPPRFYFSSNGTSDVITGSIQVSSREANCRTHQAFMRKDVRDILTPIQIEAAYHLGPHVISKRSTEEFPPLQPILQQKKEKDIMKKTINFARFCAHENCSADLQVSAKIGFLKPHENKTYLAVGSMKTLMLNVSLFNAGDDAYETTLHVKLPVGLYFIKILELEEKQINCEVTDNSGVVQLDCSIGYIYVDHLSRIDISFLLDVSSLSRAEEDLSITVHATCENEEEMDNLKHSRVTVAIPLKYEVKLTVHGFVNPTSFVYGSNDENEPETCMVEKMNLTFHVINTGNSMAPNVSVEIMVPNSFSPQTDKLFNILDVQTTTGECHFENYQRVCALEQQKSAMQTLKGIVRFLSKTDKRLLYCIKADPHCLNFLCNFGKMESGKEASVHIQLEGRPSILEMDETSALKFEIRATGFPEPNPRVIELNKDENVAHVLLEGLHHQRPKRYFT
T1 sequence (P26010 20-723 limits assumed): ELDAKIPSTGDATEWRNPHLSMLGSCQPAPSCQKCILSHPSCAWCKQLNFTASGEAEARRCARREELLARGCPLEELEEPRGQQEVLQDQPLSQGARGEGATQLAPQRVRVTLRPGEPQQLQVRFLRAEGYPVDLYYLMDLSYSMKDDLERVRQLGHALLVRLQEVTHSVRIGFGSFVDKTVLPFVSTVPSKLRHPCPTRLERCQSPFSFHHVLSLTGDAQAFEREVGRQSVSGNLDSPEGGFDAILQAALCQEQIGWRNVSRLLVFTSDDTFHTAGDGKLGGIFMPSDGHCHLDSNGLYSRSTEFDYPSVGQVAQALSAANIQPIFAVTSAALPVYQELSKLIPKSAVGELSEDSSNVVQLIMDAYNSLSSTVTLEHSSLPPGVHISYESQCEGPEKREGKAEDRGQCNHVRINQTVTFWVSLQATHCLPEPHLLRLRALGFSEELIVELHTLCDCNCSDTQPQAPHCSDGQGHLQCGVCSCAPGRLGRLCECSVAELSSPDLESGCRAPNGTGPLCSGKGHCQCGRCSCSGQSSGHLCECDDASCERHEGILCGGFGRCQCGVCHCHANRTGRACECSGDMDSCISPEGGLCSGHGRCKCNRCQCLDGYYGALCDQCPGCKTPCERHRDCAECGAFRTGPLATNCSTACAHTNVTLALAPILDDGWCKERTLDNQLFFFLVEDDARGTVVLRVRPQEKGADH
Format: binding
Method: After washing with wash buffer, 200 μL assay buffer was added to each well and incubated for one hour at 28° C. After another wash with wash buffer, 100 μL of a MAdCAM and peptide mixture in assay buffer was added to each well and incubated for one hour at 28° C., followed by washing with wash buffer.
C[C@@H](O)[C@@H]1NC(=O)[C@H](CCCCN)NC(=O)[C@H](CO)NC(=O)[C@H](CCC(N)=O)NC(=O)[C@H](Cc2c[nH]c3ccccc23)NC(=O)[C@@H]2CCCN2C(=O)[C@@H]2CSCc3cc(cc(c3)OCCCCCCON=CC(=O)N[C@@H](CC(=O)O)C(=O)N2)CSC[C@@H](C(=O)O)NC1=O [SEQ ID NO: 95] (DCPWQSKTC-OH; linker N-2-9 via X1) was tested, and the IC50 was 17.7 µM.

Same assay, conditions: Table 3 Representative compounds; inhibition of MAdCAM binding to coated α4β7; read-out: IC50
In the case of CSCC[C@@H]1NC(=O)[C@H](CCCNC(=N)N)NC(=O)[C@@H]2CSCc3cc(cc(c3)OCCCCCCO/N=C/C(=O)N[C@@H]([C@H](C)O)C(=O)N2)CSC[C@@H](C(N)=O)NC(=O)[C@H](CC(=O)O)NC(=O)[C@H](CCC(N)=O)NC(=O)[C@H](Cc2ccccc2)NC(=O)[C@H](CC(=O)O)NC1=O [compound 106, TSL6- STCRMDFQDC] ([aThr]CRMDFQDC-NH2; linker N-2-9 via X3), the IC50 is reported as 499 µM.
In the case of CCCC[C@@H]1NC(=O)[C@@H]2CCCN2C(=O)[C@@H]2CSCc3cc(cc(c3)OCCCCCCO/N=C/C(=O)N[C@@H](CCCNC(=N)N)C(=O)N2)CSC[C@@H](C(N)=O)NC(=O)[C@H](CCC(=O)O)NC(=O)CNC(=O)[C@H](C)NC(=O)[C@H](C(C)C)NC(=O)[C@H](CC(=O)O)NC1=O [compound 15] (RCP[Nle]DVAGEC-NH2; linker N-2-10 via X3), the IC50 is reported as 0.261 µM.
With CC[C@H](C)[C@@H]1NC(=O)[C@H](Cc2ccc(O)cc2)NC(=O)[C@H](CC(C)C)NC(=O)[C@@H]2CCCN2C(=O)[C@@H]2CSCc3cc(cc(c3)OCCCCCCO/N=C/C(=O)N[C@@H](CCSC)C(=O)N2)CSC[C@@H](C(N)=O)NC(=O)[C@H](Cc2cnc[nH]2)NC(=O)[C@H](C(C)C)NC1=O [compound 72, TSL6- SMCPLYIVHC] (MCPLYIVHC-NH2; linker N-2-9 via X3) the IC50 was 29.4 µM.
Work on CC(C)C[C@@H]1NC(=O)[C@H](Cc2ccccc2)NC(=O)[C@@H]2CSCc3cc(cc(c3)OCCCCCCO/N=C/C(=O)N[C@@H]([C@@H](C)O)C(=O)N2)CSC[C@@H](C(N)=O)NC(=O)[C@H](CC(N)=O)NC(=O)[C@H](CCCCN)NC(=O)[C@H](C(C)C)NC(=O)[C@H](CC(=O)O)NC1=O [compound 104, TSL6- STCFLDVKNC] (TCFLDVKNC-NH2; linker N-2-9 via X3) yielded an IC50 of 311 µM.
CSCC[C@@H]1NC(=O)[C@H](CCC(N)=O)NC(=O)[C@@H]2CSCc3cc(cc(c3)OCCCCCCO/N=C/C(=O)N[C@@H](Cc3ccccc3)C(=O)N2)CSC[C@@H](C(N)=O)NC(=O)[C@H](C)NC(=O)[C@H](CCCCN)NC(=O)[C@H](CCC(=O)O)NC(=O)[C@H](Cc2ccccc2)NC1=O [compound 102, TSL6- SFCQMFEKAC] (FCQMFEKAC-NH2; linker N-2-9 via X3) gave an IC50 of 178 µM.
Work on C[C@@H](O)[C@@H]1NC(=O)[C@H](CC(=O)O)NC(=O)[C@@H]2CCCN2C(=O)[C@H](Cc2c[nH]c3ccccc23)NC(=O)[C@@H]2CSCc3cc(cc(c3)OCCCCCCO/N=C/C(=O)N[C@@H](CC(=O)O)C(=O)N2)CSC[C@H](C(N)=O)NC(=O)[C@H](Cc2cnc[nH]2)NC(=O)[C@H](Cc2ccc(O)cc2)NC1=O [compound 95, TSL6- SDCWPDTYHC] (DCWPDTYH[dC]-NH2; linker N-2-9 via X3) yielded an IC50 of 114 µM.
In the case of CCCC[C@@H]1NC(=O)[C@@H]2CCCN2C(=O)[C@@H]2CSCc3cc(cc(c3)OCCCCCCO/N=C/C(=O)N[C@@H](CCCNC(=N)N)C(=O)N2)CSC[C@@H](C(N)=O)NC(=O)[C@H](CCCCN)NC(=O)[C@H](C(C)C)NC(=O)[C@H](Cc2c[nH]c3ccccc23)NC(=O)[C@H]([C@@H](C)CC)NC(=O)[C@H](CC(=O)O)NC1=O [compound 27, TSL6- SRCP{Nle} DIWVKC] (RCP[Nle]DIWVKC-NH2; linker N-2-10 via X3), the IC50 is reported as 0.62 µM.
CCCC[C@@H]1NC(=O)[C@H](CO)NC(=O)[C@@H]2CSSC[C@@H](C(=O)N[C@@H](Cc3c[nH]c4ccccc34)C(=O)N[C@@H](CCC(N)=O)C(N)=O)NC(=O)[C@H](CC(C)C)NC(=O)[C@@H](CC(=O)O)NC(=O)[C@H](CCCC)NC(=O)[C@H](CO)NC(=O)[C@H](CCCNC(=N)N)NC(=O)[C@H](CSCC(=O)N[C@@H](CCCNC(=N)N)C(=O)N2)NC(=O)[C@H](CC(C)C)NC(=O)[C@H](CC(=O)O)NC1=O [compound 103, Disulfide- RCS{Nle}DICRS NleDICWQ] ({CH2CO}-RCS[Nle]DLCRS[Nle][dD]LCWQ-NH2; disulfide 2-13; thioether N-7) was tested, and the IC50 was 263 µM.
With CC(C)C[C@@H]1NC(=O)[C@@H]2CCCN2C(=O)[C@@H]2CSCc3cc(cc(c3)OCCCCCCO/N=C/C(=O)N[C@@H](CCCCN)C(=O)N2)CSC[C@@H](C(N)=O)NC(=O)[C@H](C)NC(=O)[C@H](Cc2ccc(O)cc2)NC(=O)[C@@H]2CCCN2C(=O)[C@H]([C@@H](C)O)NC(=O)[C@H](CC(=O)O)NC1=O [compound 24, TSL6- SKCPLDTPYAC] (KCPLDTPYAC-NH2; linker N-2-10 via X3) the IC50 was 0.517 µM.
With CC(C)C[C@@H]1NC(=O)[C@@H]2CCCN2C(=O)[C@@H](NC(=O)[C@H](CCCCN)NC(=O)[C@@H](N)CO)CSSC[C@@H](C(N)=O)CC(=O)[C@H](CCC(=O)O)NC(=O)[C@H](Cc2ccc(O)cc2)NC(=O)[C@@H]2CCCN2C(=O)[C@H](C(C)O)NC(=O)[C@H](CC(=O)O)NC1=O (stereo partly drawn) [compound 25] (H-SKCPLD[Thr(3ξ)]PY; linker 3-C via X9) the IC50 was 0.552 µM.
CC[C@H](C)[C@@H]1NC(=O)[C@H](CC(=O)O)NC(=O)[C@H](CCSC)NC(=O)[C@@H]2CCCN2C(=O)[C@@H](NC(=O)[C@H](CCC(N)=O)NC(=O)[C@H](CO)NC(C)=O)CSSC[C@@H](C(N)=O)NC(=O)[C@H]([C@@H](C)O)NC(=O)[C@@H]2CCCN2C1=O [compound 47] (Ac-SQCPMDIPTC-NH2; disulfide 3-10) was tested, and the IC50 was 1.7 µM.
Work on CC[C@H](C)[C@@H]1NC(=O)[C@H](CC(=O)O)NC(=O)[C@H](CC(C)C)NC(=O)[C@@H]2CCCN2C(=O)[C@@H]2CSCc3cc(cc(c3)OCCCCCCO/N=C/C(=O)N[C@@H](CCCCN)C(=O)N2)CSC[C@@H](C(N)=O)NC(=O)[C@H](CCC(=O)O)NC(=O)[C@H](Cc2ccc(O)cc2)NC(=O)[C@@H]2CCCN2C1=O [compound 11] (KCPLDIPYEC-NH2; linker N-2-10 via X3) yielded an IC50 of 0.198 µM.

Same assay, conditions: competition ELISA, 4 μg/mL α4β7 coated, MAdCAM and peptide mixture, 28° C.; read-out: IC50
With CC[C@H](C)[C@@H]1NC(=O)[C@H](CC(=O)O)NC(=O)[C@H](CCSC)NC(=O)[C@@H]2CCCN2C(=O)[C@@H](NC(=O)[C@H](CCC(N)=O)NC(=O)[C@H](CO)NC(C)=O)CSSC[C@@H](C(=O)O)NC(=O)[C@H]([C@@H](C)O)NC(=O)[C@@H]2CCCN2C1=O [SEQ ID NO: 111] (Ac-SQCPMDIPTC-OH; disulfide 3-10) the IC50 was 1.7 µM.
For CC[C@H](C)[C@@H]1NC(=O)[C@H](CC(=O)O)NC(=O)[C@H](CC(C)C)NC(=O)[C@H](CCCCN)NC(=O)[C@@H]2CSCc3cc(cc(c3)OCCCCCCON=CC(=O)N[C@@H](Cc3c[nH]cn3)C(=O)N2)CSC[C@@H](C(=O)O)NC(=O)[C@H](C(C)C)NC(=O)[C@H](Cc2c[nH]c3ccccc23)NC1=O [SEQ ID NO: 73] (HCKLDIWVC-OH; linker N-2-9 via X1), the IC50 was > 500 µM.
